Experimental data taken from patent US10098870B2 (JENKEM TECHNOLOGY CO., LTD. (BEIJING), priority 2013, dated 2018).
Where “and” joins values, the source holds several entries; their conditions need not be identical. Equal values may be shown once. Entries after “also recorded” stand apart in the source; their conditions may differ.

Key:
[1] = Body weight, survival and tolerance of mice bearing Hep3B (Example 7); format: in vivo, mouse; settings: mean ± SE
[2] = test system: human hepatoma cell plc/prf/5; test: Anti-tumor effect on subcutaneous transplantation tumor model of plc/prf/5 in NOD/SCID mice (Example 5); format: in vivo, NOD/SCID mouse; settings: for Tumor volume: 10 mg/kg (counted with rapamycin) i.v. Q2W×2W, mean ± SE
Method: The tumor cells were passaged with digestion by trypsin-EDTA twice a week. The cells in the exponential growth phase were collected, counted, and used for inoculation.
1×10^7 of plc/prf/5 tumor cells were suspended in 0.1 ml of mixed solution (PBS:Matrigel=4:1), inoculated to each NOD/SCID mouse at the right shoulder.
Wherein Q2W×2W represents intravenous injection […] for 2 weeks, the same below. (2) Experimental Results

[3] = Body weight, survival and tolerance of mice bearing Calu-6 (Example 9); settings: mean ± SE;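 note: nude mice bearing Calu-6 tumours, established by implanting 5.0×10^6 cells at the right shoulder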
Method: 5.0×10^6 of Calu-6 tumor cells were suspended in 0.1 ml of PBS, inoculated to each nude mouse at the right shoulder, and there were totally 34 mice inoculated.

[4] = test system: A549 human non-small cell lung cancer cells; test: Anti-tumor effect on xenograft tumor model of A549 in nude mice (Example 10); settings: for T/C (%) RTV / T/C (%) TW: vs physiological saline; for RTV / Tumor weight: 52nd day, Mean ± SEM; for Tumor volume: mean ± SE;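 for all read-outs here: nude mice bearing A549 xenografts established by inoculating 1.0×10^7 cells in PBS at the right shoulder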
Method: A549 cells were cultured with a monolayer in vitro in RPMI1640 medium supplied with heat-inactivated fetal bovine serum with a volume ratio of 10%, and an incubator at 37° C. with the air containing CO2 with a proportion of 5%. The tumor cells were passaged with digestion by trypsin-EDTA twice a week. The cells in the exponential growth phase were collected, counted, and used for inoculation.
1.0×10^7 of A549 tumor cells were suspended in 0.1 ml of PBS, inoculated to each nude mouse at the right shoulder, and there were totally 36 mice inoculated.

[5] = day 24 after inoculation, 30 mg/kg i.v. BIW×4W
[6] = day 24 after inoculation, 45 mg/kg i.v. QW×4W
[7] = day 28 after inoculation, 30 mg/kg i.v. BIW×4W
[8] = day 28 after inoculation, 45 mg/kg i.v. QW×4W
[9] = day 31 after inoculation, 30 mg/kg i.v. BIW×4W
[10] = day 31 after inoculation, 45 mg/kg i.v. QW×4W
[11] = day 35 after inoculation, 30 mg/kg i.v. BIW×4W
[12] = day 35 after inoculation, 45 mg/kg i.v. QW×4W
[13] = day 38 after inoculation, 30 mg/kg i.v. BIW×4W
[14] = day 42 after inoculation, 30 mg/kg i.v. BIW×4W
[15] = day 42 after inoculation, 45 mg/kg i.v. QW×4W

monomethoxy polyethylene glycol (20K)-glutamic acid dipeptide-rapamycin conjugate [LPR-2]
Body weight of animal ([1]; day 20 after inoculation, 45 mg/kg i.v. QW×4W): 18.6 ± 0.4 g | Body weight of animal ([1]; day 23 after inoculation, 30 mg/kg i.v. BIW×4W): 20.4 ± 0.5 g | Body weight of animal ([1]; day 23 after inoculation, 45 mg/kg i.v. QW×4W): 18.6 ± 0.4 g | Body weight of animal ([1]; day 27 after inoculation, 30 mg/kg i.v. BIW×4W): 19.7 ± 0.5 g | Body weight of animal ([1]; day 27 after inoculation, 45 mg/kg i.v. QW×4W): 17.9 ± 0.4 g | Body weight of animal ([1]; day 30 after inoculation, 30 mg/kg i.v. BIW×4W): 19.1 ± 0.5 g | Body weight of animal ([1]; day 30 after inoculation, 45 mg/kg i.v. QW×4W): 18.2 ± 0.4 g | Body weight of animal ([1]; day 34 after inoculation, 30 mg/kg i.v. BIW×4W): 19.1 ± 0.6 g | Body weight of animal ([1]; day 34 after inoculation, 45 mg/kg i.v. QW×4W): 18.2 ± 0.4 g | Body weight of animal ([1]; day 37 after inoculation, 30 mg/kg i.v. BIW×4W): 18.6 ± 0.4 g | Body weight of animal ([1]; day 37 after inoculation, 45 mg/kg i.v. QW×4W): 18.0 ± 0.3 g | Body weight of animal ([1]; day 41 after inoculation, 30 mg/kg i.v. BIW×4W): 17.9 ± 0.3 g | Body weight of animal ([1]; day 41 after inoculation, 45 mg/kg i.v. QW×4W): 16.7 ± 0.5 g | Body weight of animal ([1]; day 44 after inoculation, 30 mg/kg i.v. BIW×4W): 17.3 ± 0.3 g | Body weight of animal ([1]; day 44 after inoculation, 45 mg/kg i.v. QW×4W): 17.1 ± 0.4 g | anti-tumor effect (in words) ([2]; 10 mg/kg counted with rapamycin, i.v. Q2W×2W): stronger antitumor activity than that of polyethylene glycol-rapamycin (LPR-1); also recorded: a certain anti-tumor effect; also recorded: obviously the maximum anti-tumor effect; also recorded: anti-tumor effect significantly higher than that of LPR-1 | Days for delaying tumor growth (to 1000 mm^3) ([2]; 10 mg/kg i.v. Q2W×2W): >7 days | Tumor volume ([2]; day 24 after inoculation): 353 ± 54 mm^3 | Tumor volume ([2]; day 27 after inoculation): 404 ± 89 mm^3 | Tumor volume ([2]; day 31 after inoculation): 391 ± 72 mm^3 | Tumor volume ([2]; day 34 after inoculation): 456 ± 77 mm^3 | Tumor volume ([2]; day 38 after inoculation): 536 ± 77 mm^3 | Body weight of animal ([3]; day 14 after inoculation, 30 mg/kg i.v. BIW×4W): 20.9 ± 0.4 g | Body weight of animal ([3]; day 14 after inoculation, 45 mg/kg i.v. QW×4W): 20.6 ± 0.4 g | Body weight of animal ([3]; day 17 after inoculation, 30 mg/kg i.v. BIW×4W): 21.0 ± 0.4 g | Body weight of animal ([3]; day 17 after inoculation, 45 mg/kg i.v. QW×4W): 20.0 ± 0.4 g | Body weight of animal ([3]; day 21 after inoculation, 30 mg/kg i.v. BIW×4W): 21.7 ± 0.4 g | Body weight of animal ([3]; day 21 after inoculation, 45 mg/kg i.v. QW×4W): 19.9 ± 0.6 g | Body weight of animal [3, 5]: 21.6 ± 0.3 g | Body weight of animal [3, 6]: 20.9 ± 0.5 g | Body weight of animal [3, 7]: 22.4 ± 0.4 g | Body weight of animal [3, 8]: 21.3 ± 0.6 g | Body weight of animal [3, 9]: 21.6 ± 0.4 g | Body weight of animal [3, 10]: 20.7 ± 0.6 g | Body weight of animal [3, 11]: 22.2 ± 0.4 g | Body weight of animal [3, 12]: 21.8 ± 0.6 g | Body weight of animal [3, 13]: 22.3 ± 0.4 g | Body weight of animal [3, 14]: 22.4 ± 0.3 g | Body weight of animal [3, 15]: 21.5 ± 0.5 g | TGD (to 1,000 mm^3) ([4]; 30 mg/kg i.v. BIW×4W): >7 | T/C (%) RTV ([4]; 30 mg/kg i.v. BIW×4W): 10% | T/C (%) TW ([4]; 30 mg/kg i.v. BIW×4W): 8% | TGD (to 1,000 mm^3) ([4]; 45 mg/kg i.v. QW×4W): >7 | T/C (%) RTV ([4]; 45 mg/kg i.v. QW×4W): 11% | T/C (%) TW ([4]; 45 mg/kg i.v. QW×4W): 10% | RTV ([4]; 30 mg/kg i.v. BIW×4W): 0.94 ± 0.11 | Tumor weight ([4]; 30 mg/kg i.v. BIW×4W): 102 ± 15 mg | RTV ([4]; 45 mg/kg i.v. QW×4W): 1.05 ± 0.11 | Tumor weight ([4]; 45 mg/kg i.v. QW×4W): 129 ± 20 mg | Tumor volume [4, 5]: 140 ± 11 mm^3 | Tumor volume [4, 6]: 139 ± 11 mm^3 | Tumor volume [4, 7]: 131 ± 8 mm^3 | Tumor volume [4, 8]: 115 ± 8 mm^3 | Tumor volume [4, 9]: 134 ± 11 mm^3 | Tumor volume [4, 10]: 126 ± 10 mm^3 | Tumor volume [4, 11]: 124 ± 15 mm^3 | Tumor volume [4, 12]: 122 ± 13 mm^3 | Tumor volume [4, 13]: 131 ± 13 mm^3 | Tumor volume ([4]; day 38 after inoculation, 45 mg/kg i.v. QW×4W): 120 ± 13 mm^3 | Tumor volume [4, 14]: 122 ± 8 mm^3 | Tumor volume [4, 15]: 124 ± 9 mm^3 | Tumor volume ([4]; day 45 after inoculation, 30 mg/kg i.v. BIW×4W): 131 ± 9 mm^3 | Tumor volume ([4]; day 45 after inoculation, 45 mg/kg i.v. QW×4W): 140 ± 11 mm^3 | Tumor volume ([4]; day 49 after inoculation, 30 mg/kg i.v. BIW×4W): 128 ± 9 mm^3 | Tumor volume ([4]; day 49 after inoculation, 45 mg/kg i.v. QW×4W): 138 ± 14 mm^3 | Tumor volume ([4]; day 52 after inoculation, 30 mg/kg i.v. BIW×4W, 30 mg/kg): 127 mm^3 and 127 ± 6 mm^3 | Tumor volume ([4]; day 52 after inoculation, 45 mg/kg i.v. QW×4W, 45 mg/kg): 145 mm^3 and 145 ± 14 mm^3
